The text below walks through data of US10239887B2, “Positive allosteric modulators of the muscarinic acetylcholine receptor M4” (Vanderbilt University, priority 2016, dated 2019).

Molecules are shown by their SMILES. pEC50: −log10 of the molar value. Where a name gives a salt, the structure may show the parent alone. Bounds are passed on as bounds.

The assay concerns the target T1, human mAChR M4 (Homo sapiens, UniProt P08173).
T1 sequence (P08173 1-479): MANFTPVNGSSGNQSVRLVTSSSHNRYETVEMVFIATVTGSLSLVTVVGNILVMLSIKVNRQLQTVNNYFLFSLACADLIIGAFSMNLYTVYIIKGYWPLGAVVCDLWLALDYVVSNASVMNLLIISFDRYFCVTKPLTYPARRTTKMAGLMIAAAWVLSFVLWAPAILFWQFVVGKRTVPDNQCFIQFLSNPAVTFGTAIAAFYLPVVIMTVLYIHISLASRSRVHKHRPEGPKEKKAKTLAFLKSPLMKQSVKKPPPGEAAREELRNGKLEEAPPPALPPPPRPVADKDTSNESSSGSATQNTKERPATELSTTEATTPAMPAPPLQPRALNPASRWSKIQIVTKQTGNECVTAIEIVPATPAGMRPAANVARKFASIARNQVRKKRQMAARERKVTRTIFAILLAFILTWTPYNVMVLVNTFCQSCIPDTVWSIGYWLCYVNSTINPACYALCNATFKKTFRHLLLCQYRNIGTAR
The experiment in a line: mAChR M4 cell-based functional assay (calcium flux), human M4. As to conditions: for EC50: Human M4 EC50 (nM); for Emax: % ACh maximum at 30 μM; for pEC50: Human M4 EC50, CHO-K1 hM4-Gqi5 cells, increase in EC20 acetylcholine response.

[1] abbreviates: Table 10, calcium flux, PAM activity with EC20 acetylcholine.

On to `Cc1nnc2sc3c(NCc4ccc(C(C)(O)C5CC5)cc4)ncnc3c2c1C` (stereo not shown) [Compound 143, 1-cyclopropyl-1-[4-[[(3,4-dimethylpyrimido [4′,5′:4,5]thieno[2,3-c]pyridazin-8-yl)amino]methyl]phenyl]ethanol], for which the EC50 under setting [1] is 779 nM. Where the note is “Table 10”, the Emax was 61.3%. Consider `Cc1nnc2sc3c(NCc4ccc(C(=O)N5CCOCC5)cc4)ncnc3c2c1C` [Compound 123, [4-[[(3,4-dimethylpyrimido [4′,5′:4,5]thieno[2,3-c]pyridazin-8-yl)amino]methyl]phenyl]-morpholino-methanone], for which the EC50 under setting [1] amounted to 548 nM. For the same molecule, the Emax (Table 10) came out at 87.2%.

Consider `Cc1nnc2sc3c(NCc4ccc(C(=O)N5CCC5)cc4)ncnc3c2c1C` [Compound 131, azetidin-1-yl-[4-[[(3,4-dimethylpyrimido [4′,5′:4,5]thieno[2,3-c]pyridazin-8-yl)amino]methyl]phenyl]methanone], for which the 50% effective concentration (EC50) under setting [1] stood at 276 nM. Also, the maximal response (Emax) (Table 10) worked out at 88.4%. As for `Cc1cc(C)c2c(n1)sc1c(NC3CCC3)ncnc12` [Compound 200, N-cyclobutyl-7,9-dimethyl-pyrido [3′,2′:4,5]thieno[3,2-d] pyrimidin-4-amine], the EC50 under setting [1] amounted to 359 nM. Besides, the Emax (Table 10) turned out to be 75.5%. In the same order, the values of `COCC1CN(c2ncnc3c2sc2nc(C)cc(C)c23)C1` [Compound 194, 4-[3-(methoxymethyl)azetidin-1-yl]-7.9-dimethyl-pyrido [3′,2′:4,5]thieno[3,2-d] pyrimidine] are 762 nM and 88.7%. On to `Cc1nnc2sc3c(NCc4ccc5c(c4)COC5(C)C)ncnc3c2c1C` [Compound 372, N-[(1,1-dimethyl-3H-isobenzofuran-5-yl)methyl]-3,4-dimethyl-pyrimido[4′,5′:4,5]thieno [2,3-c]pyridazin-8-amine], for which the maximum response (Emax) (Table 11) was determined as 94.7%. As for `Cc1nnc2sc3c(NC4CN(c5ncc(OC(C)C)cn5)C4)ncnc3c2c1C` [Compound 89, N-[1-(5-isopropoxypyrimidin-2-yl)azetidin-3-yl]-3,4-dimethyl-pyrimido [4′,5′:4,5]thieno[2,3-c] pyridazin-8-amine], under setting [1], the half-maximal effective concentration (EC50) turned out to be 75.2 nM. In addition, the maximum response (Emax) (Table 10) was found to be 57.8%. With `COc1ccc(CNc2ncnc3c2sc2nnc(C)c(C)c23)cc1F` [Compound 27, N-(3-fluoro-4-methoxybenzyl)-3,4-dimethylpyrimido [4′,5′:4,5]thieno[2,3-c] pyridazin-8-amine], under “Human M4”, the maximal response (Emax) was determined as 62%. `COc1ccc(C2CC2Nc2ncnc3c2sc2nnc(C)c(C)c23)cc1` (stereo not shown) [Compound 26, N-(2-(4-methoxyphenyl)cyclopropyl)-3,4-dimethylpyrimido [4′,5′:4,5]thieno[2,3-c] pyridazin-8-amine]: where the note is “Human M4”, the Emax was 44%. Besides, the pEC50 (calcium flux) was not above 5.00. On to `Cc1nc2sc3c(NCc4ccc5c(c4)CC(C)(C)O5)ncnc3c2c(C)c1Cl` [Compound 270, 8-chloro-N-[(2,2-dimethyl-3H-benzofuran-5-yl)methyl]-7,9-dimethyl-pyrido[3′,2′:4,5]thieno [3,2-d]pyrimidin-4-amine dihydrochloride], for which the EC50 (Table 10, unit μM (bounds)) was more than 10000 nM. The maximum response (Emax) (Table 10) stood at 22%. `Cc1nnc2oc3c(NC4CCCC4)ncnc3c2c1C` [Compound 70, N-cyclopentyl-3,4-dimethyl-pyrimido [4′,5′:4,5]furo[2,3-c]pyridazin-8-amine]: the Emax (Human M4) amounted to 45.9%. Besides, the negative-log EC50 (pEC50) (calcium flux) is 6.09. For the molecule `Cc1nnc2sc3c(NCc4ccc(C(=O)NC5CC5)cc4)ncnc3c2c1C` [Compound 133, N-cyclopropyl-4-[[(3,4-dimethylpyrimido [4′,5′:4,5]thieno[2,3-c]pyridazin-8-yl)amino]methyl]benzamide], the EC50 under setting [1] is 100 nM. For the setting “Table 10”, the maximal effect (Emax) was determined as 86%.

As to `Cc1nnc2oc3c(NC4CCC4)ncnc3c2c1C` [Compound 69, N-cyclobutyl-3,4-dimethyl-pyrimido [4′,5′:4,5]furo[2,3-c]pyridazin-8-amine], the Emax (Human M4) is 54.8%.

`Cc1nnc2oc3c(NCc4ccc(C5(O)CCC5)cc4)ncnc3c2c1C` [Compound 298, 1-[4-[[(3,4-dimethylpyrimido [4′,5′:4,5]furo[2,3-c]pyridazin-8-yl)amino]methyl]phenyl]cyclobutanol]: under setting [1], the EC50 was 862 nM. Further, the Emax (Table 10) is 58.2%. On to `Cc1cc(C)c2c(n1)sc1c(N3CC(c4ccncc4)C3)ncnc12` [Compound 201, 7,9-dimethyl-4-[3-(4-pyridyl)azetidin-1-yl] pyrido[3′,2′:4,5]thieno [3,2-d]pyrimidine], for which the EC50 under setting [1] came out at 341 nM. Further, the Emax (Table 10) came to 66.5%. In the same order, the values of `Cc1c(Cl)nnc2sc3c(N4CCCC4)ncnc3c12` [Compound 209, 3-chloro-4-methyl-8-pyrrolidin-1-yl-pyrimido[4′,5′:4,5] thieno[2,3-c]pyridazine] are 55.5 nM and 89.9%.

For the molecule `Cc1cc(C)c2c(n1)oc1c(NC3CC3c3ccc(F)c(F)c3)ncnc12` (stereo not shown) [Compound 61, hydrochloride], the Emax (Human M4) was found to be 56.3%. The pEC50 (calcium flux) is 5.47. Turning to `Cc1nnc2sc3c(NCc4ccc(-c5ccn(C)n5)cc4)ncnc3c2c1C` [Compound 192, 3,4-dimethyl-N-[[4-(1-methylpyrazol-3-yl)phenyl]methyl]pyrimido [4′,5′:4,5]thieno[2,3-c] pyridazin-8-amine], under setting [1], the half-maximal effective concentration (EC50) was found to be 851 nM. For the same molecule, the Emax (Table 10) was 85.9%. In the case of `Cc1cc(C)c2c(n1)oc1c(NC3CC3c3ccc(F)c(F)c3)ncnc12` (stereo not shown) [Compound 294, N-[2-(3,4-difluorophenyl)cyclopropyl]-7,9-dimethyl-pyrido[3′,2′:4,5]furo [3,2-d]pyrimidin-4-amine hydrochloride], the EC50 under setting [1] is 3380 nM. Also, the Emax (Table 10) is 56.3%. Regarding `COC(=O)C12CC(CNc3ncnc4c3sc3nnc(C)c(C)c34)(C1)C2` [Compound 140, methyl 1-[[(3,4-dimethylpyrimido [4′,5′:4,5]thieno[2,3-c]pyridazin-8-yl)amino]methyl]bicyclo[1.1.1] pentane-3-carboxylate], the EC50 under setting [1] came out at 1240 nM. Also, the maximal effect (Emax) (Table 10) was determined as 80.3%. With `Cc1cnc(N2CC3(CC(Nc4ncnc5c4sc4nnc(C)c(C)c45)C3)C2)nc1` [Compound 165, 3,4-dimethyl-N-[2-(5-methylpyrimidin-2-yl)-2-azaspiro[3.3]heptan-6-yl]pyrimido [4′,5′:4,5]thieno[2,3-c] pyridazin-8-amine], the EC50 under setting [1] amounted to 2410 nM. In addition, the maximal response (Emax) (Table 10) worked out at 31.6%. With `Cc1ncc(CNc2ncnc3c2sc2ncc(Cl)c(C)c23)cn1` [Compound 238, 8-chloro-9-methyl-N-[(2-methylpyrimidin-5-yl)methyl]pyrido [3′,2′:4,5]thieno[3,2-d] pyrimidin-4-amine dihydrochloride], the EC50 under setting [1] amounted to 382 nM. Moreover, the Emax (Table 10) stood at 61%. As to `Cc1nnc2sc3c(NCc4ccc(C(C)(C)O)cc4F)ncnc3c2c1C` [Compound 107, 2-[4-[[(3,4-dimethylpyrimido [4′,5′:4,5]thieno[2,3-c]pyridazin-8-yl)amino]methyl]-3-fluoro-phenyl]propan-2-ol], under setting [1], the 50% effective concentration (EC50) amounted to 207 nM. The Emax (Table 10) stood at 78.8%. As for `Cc1c(Cl)cnc2sc3c(N4CC(c5ccncc5)C4)ncnc3c12` [Compound 224, 8-chloro-9-methyl-4-[3-(4-pyridyl)azetidin-1-yl]pyrido [3′,2′:4,5]thieno[3,2-d] pyrimidine], the concentration for a half-maximal effect (EC50) under setting [1] is 102 nM. Besides, under “Table 10”, the Emax turned out to be 57.6%. In the same order, the values of `COCCN1CCN(c2ccc(CNc3ncnc4c3sc3nnc(C)c(C)c34)cc2)CC1` [Compound 120, N-[[4-[4-(2-methoxyethyl)piperazin-1-yl]phenyl]methyl]-3,4-dimethyl-pyrimido [4′,5′:4,5]thieno[2,3-c] pyridazin-8-amine] are 226 nM and 100%.

Consider `Cc1nnc2sc3c(N4CC[C@H](Oc5ccc(C(F)(F)F)nc5)C4)ncnc3c2c1C` [Compound 362, 3,4-dimethyl-8-[(3S)-3-[[6-(trifluoromethyl)-3-pyridyl]oxy]pyrrolidin-1-yl] pyrimido[4′,5′:4,5]thieno [2,3-c]pyridazine dihydrochloride], for which the EC50 (Table 11, calcium flux, PAM activity with EC20 acetylcholine) came to 519 nM. For the same molecule, the maximal response (Emax) (Table 11) turned out to be 75.7%. In the case of `Cc1nc2oc3c(NC4CN(c5ncc(C(F)(F)F)cn5)C4)ncnc3c2c(C)c1Cl` [Compound 241, 8-chloro-7,9-dimethyl-N-[1-[5-(trifluoromethyl)pyrimidin-2-yl]yl]azetidin-3-yl]pyrido [3′,2′:4,5]furo[3,2-d] pyrimidin-4-amine hydrochloride], the EC50 under setting [1] worked out at 1010 nM. In addition, the Emax (Table 10) is 39.7%. For `CNC(=O)c1cc(CNc2ncnc3c2sc2nnc(C)c(C)c23)ccc1F` [Compound 187, 5-[[(3,4-dimethylpyrimido [4′,5′:4,5]thieno[2,3-c]pyridazin-8-yl)amino]methyl]-2-fluoro-N-methyl-benzamide], the half-maximal effective concentration (EC50) under setting [1] came to 154 nM. Under “Table 10”, the maximal response (Emax) was found to be 87.6%. In the case of `Cc1nnc2oc3c(NC4CC4)ncnc3c2c1C` [Compound 68, N-cyclopropyl-3,4-dimethyl-pyrimido [4′,5′:4,5]furo[2,3-c]pyridazin-8-amine], the maximum response (Emax) (Human M4) was 66.5%. In addition, the negative-log EC50 (pEC50) (calcium flux) was 5.88.
